From publication PMC3853718 (Journal of Translational Medicine, 2013)

Test system: subjects with advanced malignancies
Experiment: Phase 1 dose escalation: toxicity, safety and tolerability (DLT, MAD, RP2D, AEs)

`CCc1cnn2c(NCc3ccc[n+]([O-])c3)cc(N3CCCC[C@H]3CCO)nc12` [dinaciclib] was tested, and the “TEAE: Hyperglycemia” value (10 mg/m^2 (n = 3), Grade 3–4) was 1 (33) n (%), the “TEAE: Hyperuricemia” value (10 mg/m^2 (n = 3), Grade 3–4) was 0 n (%) and the “TEAE: Hypokalemia” value (10 mg/m^2 (n = 3), Grade 3–4) was 0 n (%). The “TEAE: Hypophosphatemia” value (10 mg/m^2 (n = 3), Grade 3–4) was 0 n (%), the “TEAE: Increased ALP” value (10 mg/m^2 (n = 3), Grade 3–4) was 0 n (%) and the “TEAE: Increased ALT” value (10 mg/m^2 (n = 3), Grade 3–4) was 0 n (%). The “TEAE: Increased AST” value (10 mg/m^2 (n = 3), Grade 3–4) was 0 n (%), the “TEAE: Nausea” value (10 mg/m^2 (n = 3), Grade 3–4) was 0 n (%) and the “TEAE: Neutropenia” value (10 mg/m^2 (n = 3), Grade 3–4) was 1 (33) n (%). For the same compound, the “TEAE: Peripheral edema” value (10 mg/m^2 (n = 3), Grade 3–4) was 0 n (%), the “TEAE: Pyrexia” value (10 mg/m^2 (n = 3), Grade 3–4) was 0 n (%) and the “TEAE: Subjects with any AE” value (10 mg/m^2 (n = 3), Grade 3–4) was 1 (33) n (%). The “TEAE: Urinary tract infection” value (10 mg/m^2 (n = 3), Grade 3–4) was 0 n (%), the “TEAE: Vomiting” value (10 mg/m^2 (n = 3), Grade 3–4) was 0 n (%) and the “TEAE: Weight decreased” value (10 mg/m^2 (n = 3), Grade 3–4) was 0 n (%). For the same compound, the “TEAE: Abdominal distension” value (12 mg/m^2 (n = 11), All grades) was 1 (9) n (%), the “TEAE: Abdominal pain” value (12 mg/m^2 (n = 11), All grades) was 0 n (%) and the “TEAE: Anemia” value (12 mg/m^2 (n = 11), All grades) was 6 (55) n (%). For the same compound, the “TEAE: Asthenia” value (12 mg/m^2 (n = 11), All grades) was 4 (36) n (%), the “TEAE: Back pain” value (12 mg/m^2 (n = 11), All grades) was 1 (9) n (%) and the “TEAE: Constipation” value (12 mg/m^2 (n = 11), All grades) was 2 (18) n (%). For the same compound, the “TEAE: Cough” value (12 mg/m^2 (n = 11), All grades) was 2 (18) n (%), the “TEAE: Decreased appetite” value (12 mg/m^2 (n = 11), All grades) was 2 (18) n (%) and the “TEAE: Dehydration” value (12 mg/m^2 (n = 11), All grades) was 0 n (%). For the same compound, the “TEAE: Diarrhea” value (12 mg/m^2 (n = 11), All grades) was 1 (9) n (%), the “TEAE: Dizziness” value (12 mg/m^2 (n = 11), All grades) was 1 (9) n (%) and the “TEAE: Dyspnea” value (12 mg/m^2 (n = 11), All grades) was 0 n (%). For the same compound, the “TEAE: Fatigue” value (12 mg/m^2 (n = 11), All grades) was 4 (36) n (%), the “TEAE: Flatulence” value (12 mg/m^2 (n = 11), All grades) was 1 (9) n (%) and the “TEAE: Hyperbilirubinemia” value (12 mg/m^2 (n = 11), All grades) was 3 (27) n (%). For the same compound, the “TEAE: Hyperglycemia” value (12 mg/m^2 (n = 11), All grades) was 4 (36) n (%), the “TEAE: Hyperuricemia” value (12 mg/m^2 (n = 11), All grades) was 3 (27) n (%) and the “TEAE: Hypokalemia” value (12 mg/m^2 (n = 11), All grades) was 2 (18) n (%). The “TEAE: Hypophosphatemia” value (12 mg/m^2 (n = 11), All grades) was 2 (18) n (%), the “TEAE: Increased ALP” value (12 mg/m^2 (n = 11), All grades) was 4 (36) n (%) and the “TEAE: Increased ALT” value (12 mg/m^2 (n = 11), All grades) was 3 (27) n (%). For the same compound, the “TEAE: Increased AST” value (12 mg/m^2 (n = 11), All grades) was 4 (36) n (%), the “TEAE: Nausea” value (12 mg/m^2 (n = 11), All grades) was 3 (27) n (%) and the “TEAE: Neutropenia” value (12 mg/m^2 (n = 11), All grades) was 4 (36) n (%). For the same compound, the “TEAE: Peripheral edema” value (12 mg/m^2 (n = 11), All grades) was 3 (27) n (%), the “TEAE: Pyrexia” value (12 mg/m^2 (n = 11), All grades) was 4 (36) n (%) and the “TEAE: Subjects with any AE” value (12 mg/m^2 (n = 11), All grades) was 11 (100) n (%). For the same compound, the “TEAE: Urinary tract infection” value (12 mg/m^2 (n = 11), All grades) was 4 (36) n (%), the “TEAE: Vomiting” value (12 mg/m^2 (n = 11), All grades) was 3 (27) n (%) and the “TEAE: Weight decreased” value (12 mg/m^2 (n = 11), All grades) was 0 n (%). For the same compound, the “TEAE: Abdominal distension” value (12 mg/m^2 (n = 11), Grade 3–4) was 0 n (%), the “TEAE: Abdominal pain” value (12 mg/m^2 (n = 11), Grade 3–4) was 0 n (%) and the “TEAE: Anemia” value (12 mg/m^2 (n = 11), Grade 3–4) was 1 (9) n (%). The “TEAE: Asthenia” value (12 mg/m^2 (n = 11), Grade 3–4) was 0 n (%), the “TEAE: Back pain” value (12 mg/m^2 (n = 11), Grade 3–4) was 0 n (%) and the “TEAE: Constipation” value (12 mg/m^2 (n = 11), Grade 3–4) was 0 n (%). For the same compound, the “TEAE: Cough” value (12 mg/m^2 (n = 11), Grade 3–4) was 0 n (%), the “TEAE: Decreased appetite” value (12 mg/m^2 (n = 11), Grade 3–4) was 0 n (%) and the “TEAE: Dehydration” value (12 mg/m^2 (n = 11), Grade 3–4) was 0 n (%). The “TEAE: Diarrhea” value (12 mg/m^2 (n = 11), Grade 3–4) was 0 n (%), the “TEAE: Dizziness” value (12 mg/m^2 (n = 11), Grade 3–4) was 0 n (%) and the “TEAE: Dyspnea” value (12 mg/m^2 (n = 11), Grade 3–4) was 0 n (%). For the same compound, the “TEAE: Fatigue” value (12 mg/m^2 (n = 11), Grade 3–4) was 0 n (%), the “TEAE: Flatulence” value (12 mg/m^2 (n = 11), Grade 3–4) was 0 n (%) and the “TEAE: Hyperbilirubinemia” value (12 mg/m^2 (n = 11), Grade 3–4) was 1(9) n (%). For the same compound, the “TEAE: Hyperglycemia” value (12 mg/m^2 (n = 11), Grade 3–4) was 2 (18) n (%), the “TEAE: Hyperuricemia” value (12 mg/m^2 (n = 11), Grade 3–4) was 2 (18) n (%) and the “TEAE: Hypokalemia” value (12 mg/m^2 (n = 11), Grade 3–4) was 1 (9) n (%). For the same compound, the “TEAE: Hypophosphatemia” value (12 mg/m^2 (n = 11), Grade 3–4) was 2 (18) n (%), the “TEAE: Increased ALP” value (12 mg/m^2 (n = 11), Grade 3–4) was 0 n (%) and the “TEAE: Increased ALT” value (12 mg/m^2 (n = 11), Grade 3–4) was 0 n (%). For the same compound, the “TEAE: Increased AST” value (12 mg/m^2 (n = 11), Grade 3–4) was 1 (9) n (%), the “TEAE: Nausea” value (12 mg/m^2 (n = 11), Grade 3–4) was 0 n (%) and the “TEAE: Neutropenia” value (12 mg/m^2 (n = 11), Grade 3–4) was 2 (18) n (%). For the same compound, the “TEAE: Peripheral edema” value (12 mg/m^2 (n = 11), Grade 3–4) was 0 n (%), the “TEAE: Pyrexia” value (12 mg/m^2 (n = 11), Grade 3–4) was 0 n (%) and the “TEAE: Subjects with any AE” value (12 mg/m^2 (n = 11), Grade 3–4) was 8 (73) n (%). The “TEAE: Urinary tract infection” value (12 mg/m^2 (n = 11), Grade 3–4) was 0 n (%), the “TEAE: Vomiting” value (12 mg/m^2 (n = 11), Grade 3–4) was 0 n (%) and the “TEAE: Weight decreased” value (12 mg/m^2 (n = 11), Grade 3–4) was 0 n (%). For the same compound, the “TEAE: Abdominal distension” value (14 mg/m^2 (n = 5), All grades) was 0 n (%), the “TEAE: Abdominal pain” value (14 mg/m^2 (n = 5), All grades) was 0 n (%) and the “TEAE: Anemia” value (14 mg/m^2 (n = 5), All grades) was 2 (40) n (%). The “TEAE: Asthenia” value (14 mg/m^2 (n = 5), All grades) was 1 (20) n (%), the “TEAE: Back pain” value (14 mg/m^2 (n = 5), All grades) was 1 (20) n (%) and the “TEAE: Constipation” value (14 mg/m^2 (n = 5), All grades) was 1 (20) n (%). For the same compound, the “TEAE: Cough” value (14 mg/m^2 (n = 5), All grades) was 0 n (%), the “TEAE: Decreased appetite” value (14 mg/m^2 (n = 5), All grades) was 1 (20) n (%) and the “TEAE: Dehydration” value (14 mg/m^2 (n = 5), All grades) was 3 (60) n (%). The “TEAE: Diarrhea” value (14 mg/m^2 (n = 5), All grades) was 0 n (%), the “TEAE: Dizziness” value (14 mg/m^2 (n = 5), All grades) was 1 (20) n (%) and the “TEAE: Dyspnea” value (14 mg/m^2 (n = 5), All grades) was 1 (20) n (%). The “TEAE: Fatigue” value (14 mg/m^2 (n = 5), All grades) was 0 n (%), the “TEAE: Flatulence” value (14 mg/m^2 (n = 5), All grades) was 0 n (%) and the “TEAE: Hyperbilirubinemia” value (14 mg/m^2 (n = 5), All grades) was 2 (40) n (%). The “TEAE: Hyperglycemia” value (14 mg/m^2 (n = 5), All grades) was 1 (20) n (%), the “TEAE: Hyperuricemia” value (14 mg/m^2 (n = 5), All grades) was 1 (20) n (%) and the “TEAE: Hypokalemia” value (14 mg/m^2 (n = 5), All grades) was 0 n (%). The “TEAE: Hypophosphatemia” value (14 mg/m^2 (n = 5), All grades) was 0 n (%), the “TEAE: Increased ALP” value (14 mg/m^2 (n = 5), All grades) was 1 (20) n (%) and the “TEAE: Increased ALT” value (14 mg/m^2 (n = 5), All grades) was 0 n (%). For the same compound, the “TEAE: Increased AST” value (14 mg/m^2 (n = 5), All grades) was 1 (20) n (%), the “TEAE: Nausea” value (14 mg/m^2 (n = 5), All grades) was 4 (80) n (%) and the “TEAE: Neutropenia” value (14 mg/m^2 (n = 5), All grades) was 3 (60) n (%). The “TEAE: Peripheral edema” value (14 mg/m^2 (n = 5), All grades) was 0 n (%), the “TEAE: Pyrexia” value (14 mg/m^2 (n = 5), All grades) was 0 n (%) and the “TEAE: Subjects with any AE” value (14 mg/m^2 (n = 5), All grades) was 5 (100) n (%). For the same compound, the “TEAE: Urinary tract infection” value (14 mg/m^2 (n = 5), All grades) was 0 n (%), the “TEAE: Vomiting” value (14 mg/m^2 (n = 5), All grades) was 2 (40) n (%) and the “TEAE: Weight decreased” value (14 mg/m^2 (n = 5), All grades) was 0 n (%).
